Results taken from ChEMBL document CHEMBL1201862, “PubChem BioAssay data set” (2004).
Active and inactive are the calls of the source.

Experiments:
BJ [1] = assay: BJ-TERT fibroblast viability loss – cell-based, RAS-independent, luminescence, dose response (AID 1933); format: functional; conditions: Homo sapiens
[2] = target: T1, Heat shock factor protein 1 (Mus musculus, UniProt P38532); assay: decrease of HSF1-responsive luciferase luminescence – cell-based, NIH3T3, dose retest, confirmation (AID 2382); format: functional;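 also: NIH3T3 fibroblasts with HSF1-driven luciferase reporter stressed by proteasome inhibitor MG132; luminescence from HSF1-driven luciferase expression after 8 hours of MG132 stress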
T1 sequence (P38532 whole entry): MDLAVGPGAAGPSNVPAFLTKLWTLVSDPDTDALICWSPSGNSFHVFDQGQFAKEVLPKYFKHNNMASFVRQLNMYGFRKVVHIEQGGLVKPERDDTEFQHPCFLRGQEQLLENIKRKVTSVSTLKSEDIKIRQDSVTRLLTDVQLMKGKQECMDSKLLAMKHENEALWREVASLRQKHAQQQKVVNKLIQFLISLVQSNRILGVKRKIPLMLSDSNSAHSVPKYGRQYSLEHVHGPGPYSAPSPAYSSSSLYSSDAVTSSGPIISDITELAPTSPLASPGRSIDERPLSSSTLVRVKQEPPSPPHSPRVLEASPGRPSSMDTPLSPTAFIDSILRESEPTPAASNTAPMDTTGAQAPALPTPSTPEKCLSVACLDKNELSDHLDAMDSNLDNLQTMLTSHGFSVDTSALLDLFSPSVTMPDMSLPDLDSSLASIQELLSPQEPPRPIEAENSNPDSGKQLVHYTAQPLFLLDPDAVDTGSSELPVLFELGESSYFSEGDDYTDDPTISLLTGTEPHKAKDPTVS

BJ [3] = assay: cells; format: functional, cell-based; conditions: Homo sapiens
[4] = microbe, parasite or virus in culture; format: functional; conditions: Mycobacterium tuberculosis
BJ [5] = assay: BJ-TERT-LT-ST fibroblast viability loss – cell-based, RAS-independent, luminescence, dose response (AID 1935); format: functional; conditions: Homo sapiens;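 also: BJ fibroblasts immortalized with TERT plus LT and ST oncogenes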
[6] = DRD fibroblast viability loss – cell-based, non-viral oncogenic, luminescence, dose response (AID 1934); format: functional; conditions: Homo sapiens
[7] = Intein inhibitors as potential Tuberculosis drugs, a cytotoxicity screen. [Related pubchem assays (depositor defined):AID2221, AID2223, AID434968, AID435010, AID449749, AID449750, AID489010]; format: functional
[8] = HEK-293T cell viability reduction – luminescence, B-cell screen hits, cytotoxicity control for BCR NF-kB inhibitor project, dose response (AID 489021); format: functional, cell-based;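 also: HEK-293T cells carrying an NF-kB luciferase reporter; cells exposed to compound for about 14 hours before viability readout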
[9] = target: T2, Replicative DNA helicase DnaB (Mycobacterium tuberculosis, UniProt P9WMR3); assay: DnaB intein splicing inhibitors, dose response, biochemical, cell-free fluorescence (AID 449749); format: functional
T2 sequence (P9WMR3 whole entry): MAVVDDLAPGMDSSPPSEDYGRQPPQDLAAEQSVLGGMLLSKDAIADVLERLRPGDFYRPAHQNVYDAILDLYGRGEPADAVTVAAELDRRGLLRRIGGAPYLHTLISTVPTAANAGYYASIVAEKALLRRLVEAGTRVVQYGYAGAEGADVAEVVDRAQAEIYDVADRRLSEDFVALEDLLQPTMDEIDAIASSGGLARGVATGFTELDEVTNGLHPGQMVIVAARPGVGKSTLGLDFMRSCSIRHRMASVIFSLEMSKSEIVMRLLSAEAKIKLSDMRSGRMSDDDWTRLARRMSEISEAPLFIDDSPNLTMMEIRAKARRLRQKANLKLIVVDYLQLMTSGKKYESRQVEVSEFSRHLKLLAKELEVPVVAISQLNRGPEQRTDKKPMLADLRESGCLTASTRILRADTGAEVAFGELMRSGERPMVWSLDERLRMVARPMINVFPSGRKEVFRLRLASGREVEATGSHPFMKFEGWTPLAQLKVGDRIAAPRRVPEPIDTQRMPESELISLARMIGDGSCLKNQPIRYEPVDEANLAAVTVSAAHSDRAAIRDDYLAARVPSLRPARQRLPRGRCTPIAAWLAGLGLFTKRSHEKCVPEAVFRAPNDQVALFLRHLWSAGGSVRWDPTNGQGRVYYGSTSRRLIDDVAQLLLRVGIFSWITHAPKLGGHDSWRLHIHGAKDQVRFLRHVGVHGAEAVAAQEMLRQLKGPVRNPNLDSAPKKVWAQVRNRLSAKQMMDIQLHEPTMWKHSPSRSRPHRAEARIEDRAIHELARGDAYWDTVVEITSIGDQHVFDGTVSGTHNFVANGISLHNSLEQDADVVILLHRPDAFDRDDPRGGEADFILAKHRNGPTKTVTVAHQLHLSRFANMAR

BJ [10] = assay: growth inhibition of engineered Ras-driven BJ cells – cell-based, alamar blue fluorescence, cherrypicked samples, dose response (AID 2631); format: functional; conditions: Homo sapiens;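 also: confirmatory dose-response assay in RAS-dependent BJ fibroblasts engineered with TERT, LT and ST, with cytotoxicity read by fluorescence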
Protein RecA = target: T3, Protein RecA (Mycobacterium tuberculosis, UniProt P9WHJ3); assay: Fluorescence Cell-Free Homogeneous Dose Retest to Identify Inhibitors of RecA-Intein Splicing Activity. [Related pubchem assays (depositor defined):AID2097, AID2223, AID489010, AID492950]; format: functional
T3 sequence (P9WHJ3 whole entry): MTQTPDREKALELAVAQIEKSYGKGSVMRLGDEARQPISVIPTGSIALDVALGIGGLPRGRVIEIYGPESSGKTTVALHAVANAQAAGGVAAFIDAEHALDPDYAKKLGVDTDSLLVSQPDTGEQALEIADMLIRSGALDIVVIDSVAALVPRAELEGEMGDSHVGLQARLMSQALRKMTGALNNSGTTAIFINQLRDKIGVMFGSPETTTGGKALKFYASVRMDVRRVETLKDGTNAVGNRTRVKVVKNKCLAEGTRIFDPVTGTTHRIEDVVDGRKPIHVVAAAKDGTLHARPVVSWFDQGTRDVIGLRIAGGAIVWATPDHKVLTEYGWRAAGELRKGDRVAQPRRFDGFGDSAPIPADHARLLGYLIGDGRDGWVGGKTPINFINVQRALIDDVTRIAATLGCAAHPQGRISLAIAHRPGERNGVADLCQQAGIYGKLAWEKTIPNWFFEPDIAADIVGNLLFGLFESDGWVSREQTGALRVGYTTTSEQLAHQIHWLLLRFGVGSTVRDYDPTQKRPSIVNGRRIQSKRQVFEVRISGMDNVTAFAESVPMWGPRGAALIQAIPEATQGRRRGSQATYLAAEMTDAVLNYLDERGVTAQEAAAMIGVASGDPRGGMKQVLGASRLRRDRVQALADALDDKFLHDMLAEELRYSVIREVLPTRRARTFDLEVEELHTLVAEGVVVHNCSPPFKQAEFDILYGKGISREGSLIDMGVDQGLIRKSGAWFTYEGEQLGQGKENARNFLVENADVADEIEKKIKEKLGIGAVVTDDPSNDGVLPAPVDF

Paired box protein Pax-8 = Paired box protein Pax-8 (Homo sapiens, UniProt Q06710); assay: PAX8 transcriptional activity inhibition in RMG-I – RMG-I cells, luciferase, cherry-pick, dose response (AID 687027); format: functional, cell-based;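 also: luciferase reporter driven by Pax8 target thyroperoxidase promoter measured by SteadyGlo luminescence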
[11] = general cell-killing toxicity readout – plate reader, dry powder samples, cytotoxicity control for PAX8 inhibitor project, dose response (AID 743021); format: functional, cell-based
Coagulation factor XII = target: T4, Coagulation factor XII (Homo sapiens, UniProt P00748); assay: activated coagulation factor XII inhibitor potency, concentration-effect curve, cell-free (AID 716); format: functional
T4 sequence (P00748 whole entry): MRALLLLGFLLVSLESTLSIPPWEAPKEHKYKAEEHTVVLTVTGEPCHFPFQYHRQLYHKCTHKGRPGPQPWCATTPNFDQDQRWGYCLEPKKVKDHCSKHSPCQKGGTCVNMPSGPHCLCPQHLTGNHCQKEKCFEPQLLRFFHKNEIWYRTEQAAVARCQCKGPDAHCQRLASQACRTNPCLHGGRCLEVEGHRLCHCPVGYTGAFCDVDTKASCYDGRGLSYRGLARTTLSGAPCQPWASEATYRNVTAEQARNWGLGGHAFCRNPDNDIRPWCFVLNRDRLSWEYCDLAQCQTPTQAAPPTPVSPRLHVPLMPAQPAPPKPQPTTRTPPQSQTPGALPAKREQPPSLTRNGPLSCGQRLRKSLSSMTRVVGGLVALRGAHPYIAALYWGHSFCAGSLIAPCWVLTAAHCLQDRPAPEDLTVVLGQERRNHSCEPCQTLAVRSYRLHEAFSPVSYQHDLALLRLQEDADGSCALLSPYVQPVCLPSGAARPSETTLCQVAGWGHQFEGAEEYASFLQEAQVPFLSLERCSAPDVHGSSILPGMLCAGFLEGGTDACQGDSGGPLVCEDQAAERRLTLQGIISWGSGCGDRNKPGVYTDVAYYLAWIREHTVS

Sequence of Paired box protein Pax-8 (Q06710 whole entry): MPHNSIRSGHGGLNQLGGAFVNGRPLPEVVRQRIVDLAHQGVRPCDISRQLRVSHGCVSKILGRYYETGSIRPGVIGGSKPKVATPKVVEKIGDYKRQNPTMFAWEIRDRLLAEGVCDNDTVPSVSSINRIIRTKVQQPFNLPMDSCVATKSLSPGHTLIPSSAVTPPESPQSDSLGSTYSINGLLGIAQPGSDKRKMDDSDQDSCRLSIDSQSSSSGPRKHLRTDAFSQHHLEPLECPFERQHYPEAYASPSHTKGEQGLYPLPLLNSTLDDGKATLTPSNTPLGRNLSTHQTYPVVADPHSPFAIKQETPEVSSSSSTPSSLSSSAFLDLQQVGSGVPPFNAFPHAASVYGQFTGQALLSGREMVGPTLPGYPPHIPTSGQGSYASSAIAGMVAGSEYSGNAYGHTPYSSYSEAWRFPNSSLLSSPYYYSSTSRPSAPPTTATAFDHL

SMILES | EC50 (BJ [1]) | EC50 [2] | EC50 (BJ [3]) | CC50 [4] | EC50 (BJ [5]) | EC50 [6] | CC50 [7] | IC50 [8] | AC50 [9] | EC50 (BJ [10]) | EC50 (Protein RecA) | AC50 (Paired box protein Pax-8) | AC50 [11] | IC50 (Coagulation factor XII)
C=CCOc1ccccc1CN(C(=O)CCl)c1ccc2c(c1)OCO2 | 0.7 µM (inconclusive) | 4.88 µM (active) | 4.58 µM (active) | 1.68 µM (active) | 17.3 µM (inconclusive) | 5.04 µM (active) | 2.07 µM (active) | 62.1 µM (inactive) | 2.37 µM (active) | > 66.7 µM (inactive) | 0.481 µM (active) | 5.46 µM (active) | 9.67 µM (active) | –
CC(C)NC(=O)CCCc1cn(C)c2ccccc12 | – | – | – | – | – | – | – | – | – | – | – | – | – | > 50 µM (inactive)
